Among the data in publication PMC6033010, “A Targeted LC‐MS Strategy for Low‐Abundant HLA Class‐I‐Presented Peptide Detection Identifies Novel Human Papillomavirus T‐Cell Epitopes” (Proteomics, 2018) are IC50 values, retold here.

Where a SMILES comes first, the peptide text is derived from it.

This test has as its target T1, HLA‐A2 (Homo sapiens, UniProt P04439, D140Y/D185E/D98H/E176V/E277Q/G131W/G231S/I119V/I121R/I166T/I218V/L300P/L318F/N151K/N90K/P208A/P217A/Q86G/Q94H/R138H/R169H/T345S).
T1 construct: host or cells: BSM cells (HLA-A2+, HPV16-negative suspension cell line)
Briefly: In vitro competition-based cellular binding assay. The following applies: acid-stripped BSM cells, β2M, 150 nM fluorescein-labeled reference peptide FLPSDC(Fl)FPSV, test peptide 0.78–100 μM, overnight 4 °C, flow cytometry; mean of at least three experimental replicates; read-out: Experimental binding affinity [IC50(μM)]. As for the experimental part:
In Vitro Competition Based Binding Assays: In vitro competition‐based binding assays were performed as described in ref. 30. In brief, BSM cells were treated with citric acid buffer to strip off naturally presented peptides. Cells were incubated overnight at 4 °C with β2M, a constant concentration (150 nM) of fluorescein‐labeled HLA‐A2‐binding reference peptide (FLPSDC(Fl)FPSV), and six different concentrations (0.78 –100 μM) of the respective investigated non‐labeled peptide, competing for HLA‐binding. Fluorescence was measured by flow cytometry and data processed with FlowJo 10 (TreeStar, Ashland, OR, USA). A logistic four‐parametric non‐linear regression calculation using SigmaPlot 13 (Systat‐Software, San José, CA, USA) was conducted to calculate binding affinity (IC50). […] The assay was performed with at least three biological replicates for binders and two for non‐binders.
For orientation: A flow cytometer gives signals particle by particle.

In the case of `CC[C@H](C)[C@H](NC(=O)[C@H](CC(=O)O)NC(=O)[C@H](Cc1c[nH]cn1)NC(=O)[C@@H](NC(=O)[C@@H](NC(=O)[C@@H](NC(=O)[C@H](CCC(N)=O)NC(=O)[C@H](CC(C)C)NC(=O)[C@@H](N)CCC(=O)O)[C@@H](C)O)[C@@H](C)O)[C@@H](C)CC)C(=O)O` [E6_25–33] (H-ELQTTIHDI-OH), the IC50 was 36.9 µM. Then `CC[C@H](C)[C@H](N)C(=O)N[C@@H](CCCNC(=N)N)C(=O)N[C@H](C(=O)N[C@@H](CC(C)C)C(=O)N[C@@H](CCC(=O)O)C(=O)N[C@@H](CC(=O)O)C(=O)N[C@@H](CC(C)C)C(=O)N[C@@H](CC(C)C)C(=O)N[C@@H](CCSC)C(=O)NCC(=O)N[C@H](C(=O)O)[C@@H](C)O)[C@@H](C)O` [E7_76–86] (H-IRTLEDLLMGT-OH), with 31.9 µM. Then `CSCC[C@H](NC(=O)[C@@H](N)Cc1ccc(O)cc1)C(=O)N[C@@H](CC(C)C)C(=O)N[C@@H](CC(=O)O)C(=O)N[C@@H](CC(C)C)C(=O)N[C@@H](CCC(N)=O)C(=O)N1CCC[C@H]1C(=O)N[C@@H](CCC(=O)O)C(=O)N[C@H](C(=O)N[C@H](C(=O)N[C@@H](CC(=O)O)C(=O)O)[C@@H](C)O)[C@@H](C)O` [E7_11–21], with 2.37 µM; and `CSCC[C@H](N)C(=O)N[C@@H](CC(C)C)C(=O)N[C@@H](CC(=O)O)C(=O)N[C@@H](CC(C)C)C(=O)N[C@@H](CCC(N)=O)C(=O)N1CCC[C@H]1C(=O)N[C@@H](CCC(=O)O)C(=O)N[C@H](C(=O)O)[C@@H](C)O` [E7_12–19] (H-MLDLQPET-OH), with 53.7 µM. Then `CSCC[C@H](NC(=O)[C@H](CC(C)C)NC(=O)[C@H](CC(C)C)NC(=O)[C@H](CC(=O)O)NC(=O)[C@H](CCC(=O)O)NC(=O)[C@H](CC(C)C)NC(=O)[C@@H](NC(=O)[C@@H](N)CCCNC(=N)N)[C@@H](C)O)C(=O)NCC(=O)N[C@H](C(=O)N[C@@H](CC(C)C)C(=O)O)[C@@H](C)O` [E7_77–87] (H-RTLEDLLMGTL-OH), with 2.69 µM. Regarding `CC[C@H](C)[C@H](NC(=O)CNC(=O)[C@H](CC(C)C)NC(=O)[C@@H](NC(=O)CNC(=O)[C@H](CCSC)NC(=O)[C@H](CC(C)C)NC(=O)[C@H](CC(C)C)NC(=O)[C@H](CC(=O)O)NC(=O)[C@@H](N)CCC(=O)O)[C@@H](C)O)C(=O)N[C@H](C(=O)O)C(C)C` [E7_80–90] (H-EDLLMGTLGIV-OH), the IC50 was determined as 14.2 µM.

Turning to `CSCC[C@H](NC(=O)[C@@H](N)Cc1ccc(O)cc1)C(=O)N[C@@H](CC(C)C)C(=O)N[C@@H](CC(=O)O)C(=O)N[C@@H](CC(C)C)C(=O)N[C@@H](CCC(N)=O)C(=O)N1CCC[C@H]1C(=O)N[C@@H](CCC(=O)O)C(=O)O` [E7_11–18] (H-YMLDLQPE-OH), the IC50 worked out at 8.07 µM.

On to `CSCC[C@H](NC(=O)[C@H](CC(C)C)NC(=O)[C@H](CC(C)C)NC(=O)[C@H](CC(=O)O)NC(=O)[C@H](CCC(=O)O)NC(=O)[C@H](CC(C)C)NC(=O)[C@@H](N)[C@@H](C)O)C(=O)NCC(=O)N[C@H](C(=O)O)[C@@H](C)O` [E7_78–86] (H-TLEDLLMGT-OH), for which the IC50 came to 64.6 µM. Then `CSCC[C@H](NC(=O)[C@H](CC(C)C)NC(=O)[C@H](CC(C)C)NC(=O)[C@H](CC(=O)O)NC(=O)[C@H](CCC(=O)O)NC(=O)[C@H](CC(C)C)NC(=O)[C@@H](NC(=O)[C@@H](N)CCCNC(=N)N)[C@@H](C)O)C(=O)NCC(=O)N[C@H](C(=O)O)[C@@H](C)O` [E7_77–86], with 66.9 µM. Consider `CC[C@H](C)[C@H](NC(=O)CNC(=O)[C@H](CC(C)C)NC(=O)[C@@H](NC(=O)CNC(=O)[C@H](CCSC)NC(=O)[C@H](CC(C)C)NC(=O)[C@H](CC(C)C)NC(=O)[C@@H](N)CC(=O)O)[C@@H](C)O)C(=O)N[C@H](C(=O)O)C(C)C` [E7_81–90] (H-DLLMGTLGIV-OH), for which the IC50 is 81 µM.

Regarding `CSCC[C@H](NC(=O)[C@H](Cc1ccc(O)cc1)NC(=O)[C@@H](N)CCC(=O)O)C(=O)N[C@@H](CC(C)C)C(=O)N[C@@H](CC(=O)O)C(=O)N[C@@H](CC(C)C)C(=O)N[C@@H](CCC(N)=O)C(=O)N1CCC[C@H]1C(=O)N[C@@H](CCC(=O)O)C(=O)N[C@H](C(=O)O)[C@@H](C)O` [E7_10–19], the concentration for half-maximal inhibition (IC50) turned out to be 45.3 µM. Then `CSCC[C@H](NC(=O)[C@H](Cc1ccc(O)cc1)NC(=O)[C@H](CCC(=O)O)NC(=O)[C@H](Cc1c[nH]cn1)NC(=O)[C@H](CC(C)C)NC(=O)[C@@H](N)[C@@H](C)O)C(=O)N[C@@H](CC(C)C)C(=O)N[C@@H](CC(=O)O)C(=O)N[C@@H](CC(C)C)C(=O)N[C@@H](CCC(N)=O)C(=O)N1CCC[C@H]1C(=O)O` [E7_7–17] (H-TLHEYMLDLQP-OH), with 19.3 µM.

The IC50 is the concentration needed to halve the response being measured.
